The text below walks through data of patent US20130317116A1, “EXTERNAL SKIN PREPARATION” (JX NIPPON OIL & ENERGY CORPORATION, priority 2011, published 2013).

The assay can be described thus: Singlet oxygen quenching activity of carotenoids by the ESR method. The assay is classed as physicochemical. Particulars: for singlet oxygen quenching activity compared with astaxanthin: ESR method, Table 3 and FIG. 1; for ESR signal intensity / ESR signal intensity Mean: carotenoid 2.5 mM, lower intensity = more effective quenching; for ESR signal intensity: hematoporphyrin + UVA, TMPD spin trap; for ESR signal intensity Mean: mean of three independent experiments, control 3.20. The text has this:
Crosslinking of dermal collagen by singlet oxygen is one reason for wrinkle formation caused by photoaging (Non-Patent Document 1). If the external skin preparation according to the present invention can quench singlet oxygen, specifically, changes in collagen as observed on the photoaged skin can be inhibited, and anti-aging effects can be exerted. Accordingly, pharmacological evaluation of the external skin preparation according to the present invention in respect of improvement and prevention of wrinkle formation can be performed using the singlet oxygen quenching capacity as the indicator. For example, pharmacological evaluation of the external skin preparation according to the present invention can be performed by determining whether or not the external skin preparation according to the present invention has sufficient singlet oxygen quenching capacity by the electron spin resonance (ESR) method that is employed for evaluation of the singlet oxygen quenching activity.
Evaluation was carried out by the ESR method using an ESR apparatus (JEOLJES-FR30, JEOL Ltd.). The method of evaluation is described below.
50 μl of 250 mM spin trap agent, 50 μl of an aqueous solution of 2,2,6,6-tetramethyl-4-piperidione (TMPD), and 50 μl of an acetone solution of 10 mM carotenoid were added to 50 μl of 100 mM phosphate buffer (pH 7.4), these components were thoroughly mixed, 50 μl of an aqueous solution of 0.25 mM hematoporphyrin was added thereto as a singlet oxygen generator, and the resultant was irradiated with ultraviolet A (UVA) to generate singlet oxygen.
Subsequently, ESR signals based on stable nitroxyl radicals (4-oxo-TEMPO) generated upon the reaction between singlet oxygen and TMPD in the reaction solution were measured.
No antioxidant was applied to a control group. The results are the mean and the standard deviations of three independent experiments.

[1] abbreviates: first of three independent experiments.
Where [2] appears, read: second value column of three independent experiments.
[3] abbreviates: third value column of three independent experiments.

For the compound `CC1=C(/C=C/C(C)=C/C=C/C(C)=C/C=C/C=C(C)/C=C/C=C(C)/C=C/C2=C(C)C(=O)[C@@H](O)CC2(C)C)C(C)(C)CCC1=O` [Adonirubin, adonirubin], the “singlet oxygen quenching activity compared with astaxanthin” value is “significantly higher than that of astaxanthin” and the “ESR signal intensity Mean” value was 1.01. Also, the ESR signal intensity under setting [1] stood at 0.79. Under setting [2], the ESR signal intensity was found to be 1.13. Moreover, the ESR signal intensity under setting [3] was determined as 1.11.
The matching figures for `CC1=C(/C=C/C(C)=C/C=C/C(C)=C/C=C/C=C(C)/C=C/C=C(C)/C=C/C2=C(C)C(=O)[C@@H](O)CC2(C)C)C(C)(C)C[C@H](O)C1` [Adonixanthin, adonixanthin]: “significantly higher than that of astaxanthin”, 0.81, 0.74, 0.97 and 0.72.
As to `CC1=C(/C=C/C(C)=C/C=C/C(C)=C/C=C/C=C(C)/C=C/C=C(C)/C=C/C2=C(C)C(=O)[C@@H](O)CC2(C)C)C(C)(C)C[C@H](O)C1=O` [Astaxanthin, astaxanthin, reference compound], the “ESR signal intensity Mean” value is recorded as 2.35. For the same compound, under setting [1], the ESR signal intensity was found to be 2.00. Also, the ESR signal intensity under setting [2] came to 2.33. For the same compound, the ESR signal intensity under setting [3] was 2.72.
